Data reported in patent US20240415790A1, “A COMPOSITION FOR USE IN THE TREATMENT OF INTERVERTEBRAL DISC HERNIATION” (STAYBLE THERAPEUTICS AB, priority 2020, published 2024).
Several values for one entry are separate records, joined by “and”; a condition that tells them apart may be missing. Equal values may be shown once.

Legend:
[1] = tested on: patients with chronic discogenic low back pain; assay: Clinical study, exploratory VAS back and leg pain and ODI; format: in vivo, human
Description: Scoring of visual analog scale (VAS) for both back and leg pain and Oswestry Disability Index (ODI) were used as exploratory objectives. The sample size was not based on power calculations but was considered appropriate for a single ascending dose study to provide initial safety data on 3 different dose levels of the LA formulation. The study has been registered on the ClinicalTrials.gov website and on the EU Clinical Trials Register. It was approved by the Stockholm Regional Ethics Committee (approval No. 2016-2323-31/4) and by the Swedish Medical Products Agency (approval No. 5.1-2016-86227).
Disability was evaluated using the ODI.

collagen I = assay: Immunohistochemical analysis of collagen I in porcine IVD; format: in vivo; conditions: pig, LA 60 mg/mL, treated vs untreated IVDs
Procedure: (§1) Since effects of LA on the NP in the subsequent clinical study was planned to be assessed using MRI, the third series focused on the effects of LA (0.2 mL, 60 mg/mL) on sclerotization as measured by T2-weighted MRI. In addition, effects of LA on the expression of collagen I and II were studied by immunohistochemistry (IHC). The macroscopic changes after LA at 60 mg/mL were similar to those described above. The tissue was dehydrated in graded ethanol and embedded in paraffin. Sections were cut on a microtome, dewaxed, and incubated with polyclonal primary antibodies against collagen I (Abcam 34710) or II (Abcam 34712). The antibodies were diluted 250 (collagen I) or 200 (collagen II) times in phosphate-buffered saline containing 1% bovine serum albumin. Incubation was done at room temperature for 60 min. The sections were then incubated for 30 min at room temperature with horseradish peroxidase-conjugated secondary antibodies (Mach 2 Uni HRP, Biocare Medical) and immunoreactivity was visualized using diaminobenzidine (Biocare Medical).

porcine IVD = assay: T2-weighted MRI and photographs of porcine IVD after LA (series 3), disc height and width; format: in vivo; conditions: pig
Procedure: Since effects of LA on the NP in the subsequent clinical study was planned to be assessed using MRI, the third series focused on the effects of LA (0.2 mL, 60 mg/mL) on sclerotization as measured by T2-weighted MRI. In addition, effects of LA on the expression of collagen I and II were studied by immunohistochemistry (IHC). […] MR images were obtained using a 7T small animal MRI system (Bruker Biospec). A single 50 mm volume coil array was used (Tx/Rx). The dissected spines were stripped of the attached muscles, the spinous processes, transverse processes, and posterior aspects of the facet joints to allow them to fit in the MRI system. T2-weighted (TR: 2500-2834 ms, TE: 33-35.84 ms), 2D TurboRARE transversal and sagittal sequences were used. The TR and TE could not be maintained the same for all sequences due to required adjustments in field of view the different specimens, leading to an increased pixel matrix which affected the TR and TE. For the transverse sequences, a 500 μm slice thickness with 750 μm interslice distance and an in-plane resolution of 166×166 μm was used. For the sagittal sequences, a 750 μm slice thickness with 2000 μm interslice distance and an in-place resolution of 166×166 μm was used. […] Images were analyzed using Sante DICOM Viewer (version 8.1.5, Santesoft, Athens, Greece). The treated IVDs in all animals were assessed, and the IVD one level above the treated IVD was scanned as control. The size of the NP was quantified using both MR images and photographs of the IVDs (see FIG. 6). The results from the macroscopic and MR analyses were then correlated. […] The relative disc height was expressed as a ratio of height of treated IVD/height of untreated (control) IVD. Analogously, the relative disc width was expressed as a ratio of width of treated IVD/width of untreated (control) IVD.

collagen II = assay: Immunohistochemical analysis of collagen II in porcine IVD; format: in vivo; conditions: pig, LA 60 mg/mL, treated vs untreated IVDs
Procedure: as §1

[2] = individual animals 1-5, LA 0.2 mL 60 mg/mL
[3] = mean of 5 animals, LA 0.2 mL 60 mg/mL

With `CC(O)C(=O)O` (centres unmarked) [LA, lactic acid] the “Leg pain (VAS) at baseline” value ([1]; 45 mg group, baseline) was “no leg pain”, the “Mean leg pain at screening” value ([1]; 90 mg group) was 3 mm and the “Mean leg pain at screening” value ([1]; 180 mg group) was 14 mm. For the same compound, the “VAS (mm) for cLBP, Mean (SD)” value ([1]; LA 45 mg, Visit 1 (Screening), baseline) was 19 mm and 19 (10) mm, the “VAS (mm) for cLBP, Mean (SD)” value ([1]; LA 45 mg, Visit 5 (3 months)) was 22 (8) mm and the “VAS (mm) for cLBP, Mean (SD)” value ([1]; LA 45 mg, Visit 6 (6 months)) was 52 (28) mm. For the same compound, the “VAS (mm) for cLBP, Mean (SD)” value ([1]; LA 45 mg, Visit 7 (12 months)) was 59 (40) mm, the “VAS (mm) for cLBP, Mean (SD)” value ([1]; LA 90 mg, Visit 1 (Screening), baseline) was 44 mm and 44 (25) mm and the “VAS (mm) for cLBP, Mean (SD)” value ([1]; LA 90 mg, Visit 5 (3 months)) was 44 (22) mm. For the same compound, the “VAS (mm) for cLBP, Mean (SD)” value ([1]; LA 90 mg, Visit 6 (6 months)) was 44 (6) mm, the “VAS (mm) for cLBP, Mean (SD)” value ([1]; LA 90 mg, Visit 7 (12 months)) was 34 (14) mm and the “VAS (mm) for cLBP, Mean (SD)” value ([1]; LA 180 mg, Visit 1 (Screening), baseline) was 52 mm and 52 (18) mm. For the same compound, the “VAS (mm) for cLBP, Mean (SD)” value ([1]; LA 180 mg, Visit 5 (3 months)) was 27 (15) mm, the “VAS (mm) for cLBP, Mean (SD)” value ([1]; LA 180 mg, Visit 6 (6 months)) was 28 (32) mm and the “VAS (mm) for cLBP, Mean (SD)” value ([1]; LA 180 mg, Visit 7 (12 months)) was 61 (26) mm. For the same compound, the “Collagen I immunoreactivity in the NP” value (collagen I) was “strongly induced”, the “Height of the treated IVD on MR image (FIG. 12)” value (porcine IVD; 60 mg/ml LA, 30 days prior to the image, vs untreated control IVD) was “significant reduction in height” and the “T2-weighted MRI intensity of the sclerotized NP” value (porcine IVD; LA 60 mg/mL) was “much lower”. The “Relative disc height (treated IVD/untreated control IVD)” value (porcine IVD; [2]) was 0.55 and 0.2 and 0.33 and 0.7 and 0.36, the “Relative disc width (treated IVD/untreated control IVD)” value (porcine IVD; [2]) was 1 and 1.01 and 0.99 (2×) and 1.04 and the “Relative disc height, mean value” (porcine IVD; [3]) was 0.43. The “Relative disc width, mean value” (porcine IVD; [3]) was 1.01 and the “Collagen II immunoreactivity” value (collagen II) was “no clear difference”.
